Results: US20060178424A1, “Preventing atrial fibrillation (af) with the use of stain drugs” (priority 2003, published 2006)
Entries after “also recorded” stand apart in the source; their conditions may differ.

Columns and labels:
[1] = tested on: atrial tachycardia-induced remodeling; settings: dog, cited from earlier work; for Prevention of effects of 1-week atrial tachycardia: literature refs 7-9
[2] = General properties (body weight, hemodynamic variables) at open-chest study; type: in vivo, dog; settings: mean±SEM; for Body weight: ATP with oral treatment
Source text: (§1) Unipolar leads were inserted through jugular veins into the right ventricular (RV) apex and right atrial (RA) appendage under fluoroscopic guidance and connected to pacemakers (Medtronic) in subcutaneous pockets in the neck. A bipolar electrode was also inserted into the RA for atrial stimulation and recording during serial electrophysiological study (EPS). AV block was created by radiofrequency catheter ablation to control ventricular response during atrial tachypacing (ATP) and the RV pacemaker was programmed to pace at 80 bpm.
(§2) Body temperature was maintained at 37° C., and a femoral artery and both femoral veins were cannulated for pressure monitoring and drug administration. A median sternotomy was performed, and bipolar electrodes were hooked to the RA and left atrial (LA) appendage for recording and stimulation. A programmable stimulator (Digital Cardiovascular Instruments) was used to deliver twice-threshold currents. […] AF duration was assessed as described above and AF vulnerability was determined as the percentage of atrial sites at which AF could be induced by single extrastimuli.

[3] = tested on: atrial tachypaced dogs (atrial tachycardia-induced remodeling); assay: Final open-chest electrophysiological study after atrial tachypacing; type: in vivo, dog
Source text: as §1
(§3) After 24 hours for recovery, a baseline closed-chest EPS was performed under anesthesia with ketamine, diazepam, and isoflurane, and then ATP (400 bpm) was initiated. Closed-chest EPS was repeated at 2,4 and 7 days of ATP and a final open-chest EPS was performed on day 8 under anesthesia with morphine and α-chloralose.
as §2

[4] = tested on: atrial tachypaced dogs (atrial tachycardia-induced remodeling); assay: Serial closed-chest electrophysiological study during 7-day atrial tachypacing (400 bpm); type: in vivo, dog; settings: 7-day ATP, in words
Source text: as §1, §3

## CCCCc1oc2ccccc2c1C(=O)c1cc(I)c(OCCN(CC)CC)c(I)c1 [amiodarone]
[1]
  Prevention of effects of 1-week atrial tachycardia: prevent the effects of 1-week atrial tachycardia in the dog

## COCC(=O)O[C@]1(CCN(C)CCCc2nc3ccccc3[nH]2)CCc2cc(F)ccc2[C@@H]1C(C)C [mibefradil]
[1]
  Prevention of effects of 1-week atrial tachycardia: prevent the effects of 1-week atrial tachycardia in the dog

## CCC(C)(C)C(=O)O[C@H]1C[C@@H](C)C=C2C=C[C@H](C)[C@H](CC[C@@H]3C[C@@H](O)CC(=O)O3)[C@H]21 [simvastatin]
[2]
  Diastolic BP: 60 ± 7 mm Hg
  HR (heart rate): 169 ± 6 bpm
  LAP (left atrial pressure): 8 ± 1 mm Hg
  LVEDP (left ventricular end-diastolic pressure): 9 ± 1 mm Hg
  LVSP (left ventricular systolic pressure): 127 ± 5 mm Hg
  Systolic BP: 131 ± 4 mm Hg
  Body weight: 29 ± 2 kg

## O=C1O[C@H]([C@@H](O)CO)C(O)=C1O [vitamin C]
[2]
  Diastolic BP: 41 ± 6 mm Hg
  HR (heart rate): 145 ± 9 bpm
  LAP (left atrial pressure): 5 ± 1 mm Hg
  LVEDP (left ventricular end-diastolic pressure): 6 ± 1 mm Hg
  LVSP (left ventricular systolic pressure): 107 ± 8 mm Hg
  Systolic BP: 107 ± 8 mm Hg
  Body weight: 32 ± 2 kg
[3]; RA appendage, final open-chest study, in words
  ERP values as a function of cycle length versus ATP-only dogs: No significant differences
[3]; following ATP, ATP-only 57%
  AF requiring cardioversion for termination, share of dogs: 33%
[3]; one week of atrial tachypacing, in words
  Effect on tachypacing-induced ERP shortening and AF promotion (remodeling): unaffected; also recorded: not altered; also recorded: not shared; also recorded: not observed
[1]; Carnes et al
  Attenuation of ERP changes caused by 48-hour atrial tachycardia: effectiveness
[4]
  Atrial tachycardia-induced AF promotion (AF duration progression) versus ATP-only: not significantly different from ATP-only dogs
